According to US9193744B2, “Heterocyclic nuclear hormone receptor modulators” (AbbVie Inc., priority 2012, dated 2015):
Read-outs that look alike come from different tables or passages of the source.

Key:
[1] = target: T1, Glucocorticoid Receptor (GR) (Homo sapiens, UniProt P04150); experiment: GR Fluorescence Polarization Assay (PolarScreen Glucocorticoid Receptor Competitor Assay, Red); details: fluorescence polarization binding ranges
T1 construct: purchased Invitrogen P2893
T1 sequence (P04150 1-777): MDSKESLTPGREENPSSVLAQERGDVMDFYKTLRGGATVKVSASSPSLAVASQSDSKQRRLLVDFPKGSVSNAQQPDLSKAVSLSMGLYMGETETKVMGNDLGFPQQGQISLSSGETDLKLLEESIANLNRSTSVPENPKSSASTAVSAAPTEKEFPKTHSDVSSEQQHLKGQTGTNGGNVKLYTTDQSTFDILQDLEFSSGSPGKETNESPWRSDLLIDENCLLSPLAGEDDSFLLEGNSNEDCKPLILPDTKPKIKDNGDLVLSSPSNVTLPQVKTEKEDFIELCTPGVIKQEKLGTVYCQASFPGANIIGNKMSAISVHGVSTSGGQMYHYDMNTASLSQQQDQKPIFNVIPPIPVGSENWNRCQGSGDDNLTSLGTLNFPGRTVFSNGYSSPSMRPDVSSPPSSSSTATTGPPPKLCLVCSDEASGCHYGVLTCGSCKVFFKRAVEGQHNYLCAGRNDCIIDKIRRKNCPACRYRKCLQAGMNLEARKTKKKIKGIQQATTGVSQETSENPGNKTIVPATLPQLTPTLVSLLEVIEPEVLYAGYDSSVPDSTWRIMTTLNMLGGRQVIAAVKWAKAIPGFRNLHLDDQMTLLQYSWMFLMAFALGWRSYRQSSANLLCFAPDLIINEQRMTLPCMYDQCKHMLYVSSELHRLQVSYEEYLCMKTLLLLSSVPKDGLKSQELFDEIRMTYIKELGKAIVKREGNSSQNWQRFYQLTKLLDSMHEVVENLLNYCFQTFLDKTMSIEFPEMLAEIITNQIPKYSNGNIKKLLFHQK
Method in brief: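 Compound displacement of a red-labelled glucocorticoid from GR, read as fluorescence polarization. Tracer, receptor and 1:4-serially diluted compound were left together overnight at 4° C in the kit assay buffer.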

IL-6 = experiment: A549 Cell Assay to Measure Inflammation Markers (inhibition of IL-1β-induced IL-6); assay type: cell-based
Description: A549 Cell Assay to Measure Inflammation Markers
A549 cells were seeded (3E4 cells/well) in 96-well assay plates in culture medium (100 μL/well., F-12 K base media, supplemented with 10% FBS and 100 μ/mL-100 μg/mL Pen-Strep.) After overnight culture in an incubator set to 37° C., 4.9% CO2, and 90% humidity, media was removed from adherent cells by aspiration and replaced with 100 μL/well Assay Medium (F-12 K base media supplemented with 5% charcoal stripped calf sera and 100 U/mL-100 μg/mL Pen-Strep.) Compounds were prepared in DMSO and serial diluted (1:3, 1:4, or 1:5) with DMSO in Dilution Plate(s) to give 10 dilution points for each compound tested. Further dilution (1:250) of compound was made into assay medium and 50 μL/well diluted drug or DMSO/media control was applied to cells. After a 1 h pre-incubation in a temperature, CO2, and humidity controlled incubator, set to 37° C., 50 μL/well of 4 ng/mL IL-1β diluted in assay media, was applied to cultures. Assay plates, with a final volume of 200 μL/well and final concentrations of 0.1% DMSO and 1 ng/mL IL-1β were returned to incubator for a four h incubation period. Next, plates were spun at 183 g (1000 rpm in Beckman/Coulter Allegra 6KR centrifuge) for 10 min. Cell-free supernatant (150 μL/well) was collected and IL-6 was measured by MSD kit, following protocol of manufacturer, and using MSD SECTOR Imager 6000 instrument. Potency of compounds to inhibit IL-6 was determined using the percent reduction of measured IL-6 in wells with compound compared to control wells without drug, and relative to (100% inhibition) positive control compound of 1 μM prednisolone. Results were represented as IC50 and Emax values. To verify that viable cell numbers were similar across plate(s), and not confounding compound IC50 data interpretation, the remaining 50 μL/well of cells and media (after removal of supernatant) were used to run Cell Titer-Glo Assay per directions of manufacturer.

[2] = Homo sapiens, A549 cells, read-out: A549 cell assay
[3] = A549 cells, read-out: A549 cell assay

| IC50 [1] [µM] | IC50 (IL-6; [2]) [µM] | IC50 (IL-6; [3]) [µM] | SMILES | IC50 (IL-6; Homo sapiens, A549, read-out: A549 cell assay) [µM] |
| --- | --- | --- | --- | --- |
| < 0.1 | < 0.1 | – | CC[C@@]12CC[C@](O)(C(F)(F)F)C[C@H]1CCCc1nc3c(cnn3-c3ccc(F)cc3)cc12 (racemic) [Example 152, rac-(3R,4aR,12bR)-12b-ethyl-9-(4-fluorophenyl)-3-(trifluoromethyl)-1,2,3,4,4a,5,6,7,9,12b-decahydrobenzo[3,4]cyclohepta[1,2-b]pyrazolo[4,3-e]pyridin-3-ol] | – |
| < 0.1 | – | < 0.1 | COC[C@@]1(O)CC[C@@]2(CC3CC3)c3cc4cnn(-c5ccc(F)cc5)c4cc3CCC[C@H]2C1 [Example 40] | – |
| 0.1 to 1 | – | < 0.1 | COC[C@]1(O)CC[C@]2(Cc3ccccn3)c3cc4cnn(-c5ccncc5)c4cc3CCC[C@@H]2C1 [Example 48] | – |
| 1 to 10 | 0.1 to 1 | – | CC[C@]12CC[C@](O)(C(F)(F)F)C[C@@H]1CCCc1nc3c(cnn3-c3ccc(F)cc3)cc12 (racemic) [Example 151, rac-(3R,4aS,12bS)-12b-Ethyl-9-(4-fluorophenyl)-3-(trifluoromethyl)-1,2,3,4,4a,5,6,7,9,12b-decahydrobenzo[3,4]cyclohepta[1,2-b]pyrazolo[4,3-e]pyridin-3-ol] | – |
| < 0.1 | 0.1 to 1 | – | CC[C@]12CC[C@@](O)(C(F)(F)F)C[C@@H]1CCOc1cc3c(cnn3-c3ccc(F)cc3)cc12 (single isomer, unassigned) [Example 147] | – |
| < 0.1 | – | < 0.1 | CC[C@@]12CC[C@](O)(COC)C[C@H]1CCCc1cc3c(cnn3-c3ccc(F)cc3)cc12 [Example 37] | – |
| < 0.1 | > 10 | – | CC[C@]12CC[C@@](OCC(=O)O)(C(F)(F)F)C[C@@H]1CCCc1cc3c(cnn3-c3ccc(F)cc3)cc12 [Example 172, 2-(((3S,4aS,12bS)-12b-ethyl-9-(4-fluorophenyl)-3-(trifluoromethyl)-1,2,3,4,4a,5,6,7,9,12b-decahydrobenzo[6,7]cyclohepta[1,2-f]indazol-3-yl)oxy)acetic acid] | – |
| < 0.1 | < 0.1 | – | CC[C@@]12CC[C@](O)(COC)C[C@@H]1CCOc1cc3c(cnn3-c3ccncc3)cc12 [Example 134] | – |
| < 0.1 | – | < 0.1 | CC[C@@]12CC[C@](O)(COC)C[C@@H]1CCCc1cc3c(cnn3-c3ccc(F)cc3)cc12 [Example 35] | – |
| < 0.1 | – | < 0.1 | COC[C@@]1(O)CC[C@@]2(Cc3ncccn3)c3cc4cnn(-c5ccc(F)cc5)c4cc3CCC[C@H]2C1 [Example 41] | – |
| < 0.1 | < 0.1 | – | CC[C@]12C[C@H](O)[C@@](O)(C(F)(F)F)C[C@H]1CCCc1cc3c(cnn3-c3ccc(F)cc3)cc12 (single isomer, unassigned) [Example 99] | – |
| < 0.1 | – | < 0.1 | CCOC[C@@]1(O)CC[C@@]2(Cc3ccccn3)c3cc4cnn(-c5ccc(F)cc5)c4cc3CCC[C@H]2C1 [Example 32] | – |
| < 0.1 | – | < 0.1 | CC[C@]12CC[C@](C)(O)C[C@H]1CCCc1cc3c(cnn3-c3ccc(F)cc3)cc12 [Example 53] | – |
| < 0.1 | – | < 0.1 | N#CC[C@]1(O)CC[C@]2(Cc3ccccn3)c3cc4cnn(-c5ccncc5)c4cc3CCC[C@@H]2C1 [Example 69] | – |
| < 0.1 | < 0.1 | – | CC[C@@]12CC[C@](O)(C(F)(F)F)C=C1CCCc1cc3c(cnn3-c3ccc(F)cc3)cc12 (single isomer, unassigned) [Example 106] | – |
| < 0.1 | – | < 0.1 | COC[C@]1(O)CC[C@]2(CC3CC3)c3cc4cnn(-c5ccc(F)cc5)c4cc3CCC[C@@H]2C1 [Example 39] | – |

| IC50 [1] [µM] | IC50 (IL-6; [2]) [µM] | IC50 (IL-6; [3]) [µM] | SMILES | IC50 (IL-6; Homo sapiens, A549, read-out: A549 cell assay) [µM] |
| --- | --- | --- | --- | --- |
| < 0.1 | < 0.1 | – | N#CC[C@@]1(O)CC[C@@]2(Cc3ccccn3)c3cc4cnn(-c5ccc(F)cc5)c4cc3CCC[C@H]2C1 (single isomer, unassigned) [Example 17] | – |
| < 0.1 | < 0.1 | – | CC[C@@]12C[C@@](C)(O)[C@](O)(C(F)(F)F)C[C@H]1CCCc1cc3c(cnn3-c3ccc(F)cc3)cc12 (single isomer, unassigned) [Example 117] | – |
| < 0.1 | – | < 0.1 | COC[C@@]1(O)CC[C@@]2(Cc3ccccn3)c3cc4cnn(-c5ccncc5)c4cc3CCC[C@H]2C1 [Example 49] | – |
| < 0.1 | < 0.1 | – | CC[C@@]12CC[C@](O)(C(F)(F)F)[C@@H](O)[C@@H]1CCCc1cc3c(cnn3-c3ccc(F)cc3)cc12 (single isomer, unassigned) [Example 96] | – |
| < 0.1 | – | > 10 | CC[C@]12CC[C@@](O)(COC)C[C@H]1CCOc1cc3c(cnn3-c3ccc(F)cc3)cc12 [Example 130] | – |
| < 0.1 | – | < 0.1 | CC[C@]12CC[C@@](O)(CC#N)C[C@H]1CCCc1cc3c(cnn3-c3ccc(F)cc3)cc12 [Example 64] | – |
| 0.1 to 1 | – | > 10 | CC[C@]12CC[C@@](O)(COC)C[C@H]1CCCc1cc3c(cnn3-c3ccccn3)cc12 [Example 46] | – |
| < 0.1 | – | 0.1 to 1 | OC[C@]12CC[C@@](O)(C(F)(F)F)C[C@@H]1CCCc1cc3c(cnn3-c3ccc(F)cc3)cc12 [Example 79] | – |
| 0.1 to 1 | > 10 | – | CCOC[C@@]1(O)CC[C@]2(CC)c3cc4cnn(-c5ccc(F)cc5)c4cc3CCC[C@H]2C1 (single isomer, unassigned) [Example 10] | – |
| < 0.1 | – | < 0.1 | COC[C@@]1(O)CC[C@@]2(Cc3ncccn3)c3cc4cnn(-c5ccc(F)cc5)c4nc3CCC[C@H]2C1 [Example 158] | – |
| < 0.1 | < 0.1 | – | CC[C@@]12CC[C@](O)(C(F)(F)F)C[C@H]1CCCc1cc3c(cnn3-c3ccc(S(C)(=O)=O)cc3)cc12 [Example 168, (3R,4aR,12bR)-12b-ethyl-9-(4-(methylsulfonyl)phenyl)-3-(trifluoromethyl)-1,2,3,4,4a,5,6,7,9,12b-decahydrobenzo[6,7]cyclohepta[1,2-f]indazol-3-ol] | – |
| 0.1 to 1 | > 10 | – | CC[C@]12CC[C@@](O)(COC)C[C@H]1CCOc1cc3c(cnn3-c3ccncc3)cc12 [Example 133] | – |
| < 0.1 | < 0.1 | – | CC[C@@]12CC[C@](O)(C(F)(F)F)C[C@H]1CCCc1c2cc2cnn(-c3ccc(F)cc3)c2c1C [Example 103, (3R,4aR,12bR)-12b-Ethyl-9-(4-fluorophenyl)-8-methyl-3-(trifluoromethyl)-1,2,3,4,4a,5,6,7,9,12b-decahydrobenzo[6,7]cyclohepta[1,2-f]indazol-3-ol] | – |
| < 0.1 | – | < 0.1 | Cc1cc(-n2ncc3cc4c(cc32)CCC[C@H]2C[C@](C)(O)CC[C@@]42Cc2ccccn2)ccn1 [Example 60] | – |
| < 0.1 | < 0.1 | – | CC[C@@]12CC(=O)[C@](C)(O)C[C@@H]1CCCc1cc3c(cnn3-c3ccc(F)cc3)cc12 (racemic) [Example 100, rac-(3R,4aS,12bR)-12b-Ethyl-9-(4-fluorophenyl)-3-hydroxy-3-methyl-1,3,4,4a,5,6,7,12b-octahydrobenzo[6,7]cyclohepta[1,2-f]indazol-2(9H)-one] | – |
| < 0.1 | < 0.1 | – | OC[C@@]12CC[C@](O)(C(F)(F)F)C[C@H]1CCCc1cc3c(cnn3-c3ccc(F)cc3)cc12 (racemic) [Example 80] | – |

| SMILES | IC50 [1] [µM] | IC50 (IL-6; [2]) [µM] | IC50 (IL-6; [3]) [µM] | IC50 (IL-6; Homo sapiens, A549, read-out: A549 cell assay) [µM] |
| --- | --- | --- | --- | --- |
| N#CC[C@@]12CC[C@](O)(C(F)(F)F)C[C@H]1CCCc1cc3c(cnn3-c3ccc(F)cc3)cc12 (single isomer, unassigned) [Example 81] | < 0.1 | – | – | < 0.1 |
